Data as given in patent US20180086749A1, “INHIBITORS OF VIRUSES” (priority 2015, published 2018).
Values joined by “and” are separate entries in the source; they are usually repeats but may differ in a detail not shown here. Identical values can stand only once. Like-named read-outs stand apart in the source and are kept apart here.

Assays:
[1] = system: VEEV V3526-luc; experiment: microbe, parasite or virus in culture; assay type: cell-based, Venezuelan equine encephalitis virus; conditions: for EC50: Venezuelan equine encephalitis virus
[2] = system: HEK 293T cells; experiment: ApoTox-Glo Triplex viability, cytotoxicity, apoptosis assay; conditions: four days exposure
[3] = system: VEEV (TC83 strain); experiment: microbe, parasite or virus in culture; assay type: cell-based, Venezuelan equine encephalitis virus
[4] = system: CHIKV S27; assay type: cell-based, Chikungunya virus

SMILES: CN(C(=O)Cc1sccc1F)c1nc2c(s1)CCCC2 [ML416, 2-(3-fluorothiophen-2-yl)-N-methyl-N-(4,5,6,7-tetrahydro-1,3-benzothiazol-2-yl)acetamide]
- antiviral effect [1]: moderate effect
- effect of DHO addition on antiviral activity [1]: did not affect the antiviral activity
- EC50 [1]: 170 nM
- EC50 ([1]; BHK, read-out: EC50 V3526-luc): 1120 nM
- EC50 ([1]; HEK-293T, read-out: EC50 V3526-luc): 150 nM
- EC50 ([1]; N2a, read-out: EC50 V3526-luc): > 50000 nM
- EC50 ([1]; NIH3T3, read-out: EC50 V3526-luc): > 50000 nM
- EC50 ([1]; Vero 76, read-out: EC50 V3526-luc): 170 nM
- EC50 ([1]; in Mus musculus): > 50000 nM
- EC50 ([1]; read-out: EC50 V3526-luc): 490 nM
- EC50 ([1]; read-out: EC50 values range): 150 to 680 nM
- concentration up to which no significant cytotoxicity and apoptosis [2]: up to 25 μM
- EC50 ([3]; Venezuelan equine encephalitis virus): 350 nM
- EC50 ([3]; read-out: VEEV (TC83 strain) CPE Assay Potency mean EC50): 1000 nM and 900 nM
- reduction of CHIKV viral titer in vitro [4]: 4 log
- Log titer inhibition at 5 μM ([4]; 5 μM): −4.024 Log
